Experimental data reported in the NIST ThermoML archive (doi:10.1016/j.jct.2015.09.016).
Numbers after ± are expanded uncertainties.

Legend:
[1] = 101.33 kPa, Liquid; for electrical conductivity: Alternating current cell with electrodes; for viscosity: Falling or rolling sphere viscometry; for speed of sound: Sing-around technique in a fixed-path interferometer; for mass density: Vibrating tube method
[2] = refractive index (Na D-line) (dimensionless); settings: 303.15 K; 101.33 kPa; Liquid; Standard Abbe refractometry
[3] = wn = mass fraction of the nth substance listed; settings: 303.15 K, 100 kPa, Liquid; for electrical conductivity: Alternating current cell with electrodes; for viscosity: Falling or rolling sphere viscometry; for speed of sound: Frequency=3 MHz, Sing-around technique in a fixed-path interferometer; for mass density: Vibrating tube method

For `CCCC[NH2+]CCO.O=C([O-])C(F)(F)F` [N-(2-hydroxyethyl)butan-1-aminium 2,2,2-trifluoroacetate], the electrical conductivity ([1]; 303.15 K) was 0.0391 ± 0.0016 S/m, the viscosity ([1]; 303.15 K) was 211.7 ± 11 mPa·s and the speed of sound ([1]; 303.15 K) was 1282.6 ± 5 m/s. The mass density ([1]; 303.15 K) was 1203.34 ± 6.5 kg/m3, the electrical conductivity ([1]; 308.15 K) was 0.0494 ± 0.002 S/m and the viscosity ([1]; 308.15 K) was 171.1 ± 7.8 mPa·s. The speed of sound ([1]; 308.15 K) was 1270 ± 5 m/s, the mass density ([1]; 308.15 K) was 1198.07 ± 6.5 kg/m3 and the electrical conductivity ([1]; 313.15 K) was 0.0596 ± 0.0024 S/m. The viscosity ([1]; 313.15 K) was 135.3 ± 5.6 mPa·s, the speed of sound ([1]; 313.15 K) was 1257.7 ± 5 m/s and the mass density ([1]; 313.15 K) was 1194.18 ± 6.5 kg/m3. It also gave an electrical conductivity ([1]; 318.15 K) of 0.0703 ± 0.0028 S/m, a viscosity ([1]; 318.15 K) of 104.6 ± 4.3 mPa·s and a speed of sound ([1]; 318.15 K) of 1245.7 ± 5 m/s. For the same compound, the mass density ([1]; 318.15 K) was 1190.28 ± 6.5 kg/m3, the electrical conductivity ([1]; 323.15 K) was 0.0811 ± 0.0032 S/m and the viscosity ([1]; 323.15 K) was 81.7 ± 3.6 mPa·s. For the same compound, the speed of sound ([1]; 323.15 K) was 1233.9 ± 5 m/s, the mass density ([1]; 323.15 K) was 1186.37 ± 6.5 kg/m3 and the electrical conductivity ([1]; 328.15 K) was 0.0916 ± 0.0037 S/m. For the same compound, the viscosity ([1]; 328.15 K) was 64.7 ± 3.4 mPa·s, the speed of sound ([1]; 328.15 K) was 1222.4 ± 5 m/s and the mass density ([1]; 328.15 K) was 1182.48 ± 6.5 kg/m3. The electrical conductivity ([1]; 333.15 K) was 0.103 ± 0.0041 S/m, the viscosity ([1]; 333.15 K) was 52.3 ± 3.3 mPa·s and the speed of sound ([1]; 333.15 K) was 1211 ± 5 m/s. It also gave a mass density ([1]; 333.15 K) of 1178.6 ± 6.5 kg/m3, an electrical conductivity ([1]; 338.15 K) of 0.116 ± 0.0046 S/m and a viscosity ([1]; 338.15 K) of 42.8 ± 3.3 mPa·s. The speed of sound ([1]; 338.15 K) was 1199.8 ± 5 m/s, the mass density ([1]; 338.15 K) was 1174.73 ± 6.5 kg/m3 and the electrical conductivity ([1]; 343.15 K) was 0.128 ± 0.0051 S/m. For the same compound, the viscosity ([1]; 343.15 K) was 35.6 ± 3.2 mPa·s, the speed of sound ([1]; 343.15 K) was 1188.7 ± 5 m/s and the mass density ([1]; 343.15 K) was 1170.87 ± 6.5 kg/m3. It also gave a refractive index [2] of 1.4126 ± 0.0012.

In the case of `CCCC[NH2+]CCO.O=C([O-])C(F)(F)F` [N-(2-hydroxyethyl)butan-1-aminium 2,2,2-trifluoroacetate] + O, the electrical conductivity ([3]; w2 = 0.002186) is reported as 0.0391 ± 0.0016 S/m, the electrical conductivity ([3]; w2 = 0.003652) is reported as 0.0393 ± 0.0016 S/m and the electrical conductivity ([3]; w2 = 0.004819) is reported as 0.0394 ± 0.0016 S/m. For the same compound, the electrical conductivity ([3]; w2 = 0.006342) was 0.0396 ± 0.0016 S/m, the electrical conductivity ([3]; w2 = 0.007483) was 0.0398 ± 0.0016 S/m and the viscosity ([3]; w2 = 0.002186) was 211.7 ± 11 mPa·s. It also gave a viscosity ([3]; w2 = 0.003864) of 211.1 ± 11 mPa·s, a viscosity ([3]; w2 = 0.005373) of 210.4 ± 11 mPa·s and a viscosity ([3]; w2 = 0.006759) of 209.8 ± 11 mPa·s. The viscosity ([3]; w2 = 0.008675) was 209.1 ± 11 mPa·s, the speed of sound ([3]; w2 = 0.002186) was 1282.6 ± 5 m/s and the speed of sound ([3]; w2 = 0.003864) was 1282.9 ± 5 m/s. The speed of sound ([3]; w2 = 0.005373) was 1283.2 ± 5 m/s, the speed of sound ([3]; w2 = 0.006759) was 1283.4 ± 5 m/s and the speed of sound ([3]; w2 = 0.008675) was 1283.7 ± 5 m/s. The mass density ([3]; w2 = 0.002186) was 1203.34 ± 6.5 kg/m3, the mass density ([3]; w2 = 0.003864) was 1203.51 ± 6.5 kg/m3 and the mass density ([3]; w2 = 0.005373) was 1203.68 ± 6.5 kg/m3. The mass density ([3]; w2 = 0.006759) was 1203.81 ± 6.5 kg/m3 and the mass density ([3]; w2 = 0.008675) was 1204 ± 6.5 kg/m3.

Work on `CCCC[NH2+]CCO.O=[N+]([O-])[O-]` [N-(2-hydroxyethyl)butan-1-aminium nitrate] yielded an electrical conductivity ([1]; 303.15 K) of 0.0583 ± 0.0023 S/m, a viscosity ([1]; 303.15 K) of 272.1 ± 16 mPa·s and a speed of sound ([1]; 303.15 K) of 1608.3 ± 5.1 m/s. The mass density ([1]; 303.15 K) was 1114.69 ± 6.4 kg/m3, the electrical conductivity ([1]; 308.15 K) was 0.0701 ± 0.0028 S/m and the viscosity ([1]; 308.15 K) was 202.9 ± 10 mPa·s. For the same compound, the speed of sound ([1]; 308.15 K) was 1595.7 ± 5.1 m/s, the mass density ([1]; 308.15 K) was 1111.58 ± 6.4 kg/m3 and the electrical conductivity ([1]; 313.15 K) was 0.085 ± 0.0034 S/m. For the same compound, the viscosity ([1]; 313.15 K) was 154 ± 6.6 mPa·s, the speed of sound ([1]; 313.15 K) was 1583.5 ± 5 m/s and the mass density ([1]; 313.15 K) was 1108.47 ± 6.4 kg/m3. For the same compound, the electrical conductivity ([1]; 318.15 K) was 0.0982 ± 0.0039 S/m, the viscosity ([1]; 318.15 K) was 119.2 ± 4.8 mPa·s and the speed of sound ([1]; 318.15 K) was 1571.5 ± 5 m/s. For the same compound, the mass density ([1]; 318.15 K) was 1105.35 ± 6.4 kg/m3, the electrical conductivity ([1]; 323.15 K) was 0.115 ± 0.0046 S/m and the viscosity ([1]; 323.15 K) was 93.3 ± 3.9 mPa·s. It also gave a speed of sound ([1]; 323.15 K) of 1559.7 ± 5 m/s, a mass density ([1]; 323.15 K) of 1102.25 ± 6.4 kg/m3 and an electrical conductivity ([1]; 328.15 K) of 0.136 ± 0.0054 S/m. It also gave a viscosity ([1]; 328.15 K) of 74.1 ± 3.5 mPa·s, a speed of sound ([1]; 328.15 K) of 1548.1 ± 5 m/s and a mass density ([1]; 328.15 K) of 1099.15 ± 6.4 kg/m3. It also gave an electrical conductivity ([1]; 333.15 K) of 0.16 ± 0.0064 S/m, a viscosity ([1]; 333.15 K) of 59.6 ± 3.3 mPa·s and a speed of sound ([1]; 333.15 K) of 1536.7 ± 5 m/s. It also gave a mass density ([1]; 333.15 K) of 1096.07 ± 6.4 kg/m3, an electrical conductivity ([1]; 338.15 K) of 0.182 ± 0.0073 S/m and a viscosity ([1]; 338.15 K) of 48.8 ± 3.3 mPa·s. It also gave a speed of sound ([1]; 338.15 K) of 1525.4 ± 5 m/s, a mass density ([1]; 338.15 K) of 1093 ± 6.3 kg/m3 and an electrical conductivity ([1]; 343.15 K) of 0.2 ± 0.008 S/m. It also gave a viscosity ([1]; 343.15 K) of 40.6 ± 3.3 mPa·s, a speed of sound ([1]; 343.15 K) of 1514.3 ± 5 m/s and a mass density ([1]; 343.15 K) of 1089.95 ± 6.3 kg/m3. For the same compound, the refractive index [2] was 1.4675 ± 0.0012.

`CCCC[NH2+]CCO.O=[N+]([O-])[O-]` [N-(2-hydroxyethyl)butan-1-aminium nitrate] + O gave an electrical conductivity ([3]; w2 = 0.002318) of 0.0583 ± 0.0023 S/m, an electrical conductivity ([3]; w2 = 0.003573) of 0.0585 ± 0.0023 S/m and an electrical conductivity ([3]; w2 = 0.004837) of 0.0587 ± 0.0023 S/m. The electrical conductivity ([3]; w2 = 0.006108) was 0.0589 ± 0.0024 S/m, the electrical conductivity ([3]; w2 = 0.007452) was 0.0591 ± 0.0024 S/m and the viscosity ([3]; w2 = 0.002318) was 272.1 ± 16 mPa·s. The viscosity ([3]; w2 = 0.003967) was 271.5 ± 16 mPa·s, the viscosity ([3]; w2 = 0.005068) was 271.1 ± 16 mPa·s and the viscosity ([3]; w2 = 0.006904) was 270.5 ± 16 mPa·s. For the same compound, the viscosity ([3]; w2 = 0.008717) was 269.8 ± 16 mPa·s, the speed of sound ([3]; w2 = 0.002318) was 1608.3 ± 5 m/s and the speed of sound ([3]; w2 = 0.003967) was 1608.7 ± 5 m/s. For the same compound, the speed of sound ([3]; w2 = 0.005068) was 1609 ± 5 m/s, the speed of sound ([3]; w2 = 0.006904) was 1609.4 ± 5 m/s and the speed of sound ([3]; w2 = 0.008717) was 1609.8 ± 5 m/s. For the same compound, the mass density ([3]; w2 = 0.002318) was 1114.69 ± 6.4 kg/m3, the mass density ([3]; w2 = 0.003967) was 1114.88 ± 6.4 kg/m3 and the mass density ([3]; w2 = 0.005068) was 1115.01 ± 6.4 kg/m3. The mass density ([3]; w2 = 0.006904) was 1115.21 ± 6.4 kg/m3 and the mass density ([3]; w2 = 0.008717) was 1115.39 ± 6.4 kg/m3.
